Data reported in US12528826B2, “[1,4]oxazepino[2,3-c]quinolinone derivatives as BCL6 inhibitors” (Cancer Research Technology Limited, priority 2019, dated 2026).

The compounds below were run against T1, Trx-6×His-BCL6 (human BCL6 BTB domain covering amino-acid sequence 5-129) (Homo sapiens, UniProt P41182) (assay: HTRF assay (BCL6 / BCOR peptide)). Conditions: 1 nM Trx-6×His-BCL6, 300 nM BCOR-AF633 peptide, 2 hours incubation at room temperature; read-out: HTRF avg pIC50 (converted).
T1 construct: made in house
Assay type: binding
Description: After 2 hours incubation at room temperature the plate was read on a Pherastar FSX (BMG Labtech) plate reader equipped with 337 nm laser excitation filter, a first emission filter at 620 nm and a second emission filter at 665 nm. The % inhibition at each concentration was calculated by normalising FRET ratio to the appropriate high (DMSO with all reagents) and low (DMSO without BCL6) controls.

| Compound | IC50 [nM] |
| --- | --- |
| Cn1c(=O)c2c(c3cc(Nc4nc(N5CCNCC(O)C5)ncc4Cl)ccc31)N[C@@H](C1CC1)C(F)(F)CO2 (stereo partly drawn) [Example 12x14, (2S)-10-((5-chloro-2-(6-hydroxy-1,4-diazepan-1-yl)pyrimidin-4-yl)amino)-2-cyclopropyl-3,3-difluoro-7-methyl-1,2,3,4-tetrahydro-[1,4]oxazepino[2,3-c]quinolin-6(7H)-one] | 3.47 |
| [2H]C([2H])([2H])N1CCN(c2ncc(Cl)c(Nc3ccc4c(c3)c3c(c(=O)n4C)OCC(F)(F)[C@H](C4CC4)N3)n2)CC(O)C1 (stereo partly drawn) [Example 12x15-d3, (2S)-10-((5-chloro-2-(6-hydroxy-4-(methyl-d3)-1,4-diazepan-1-yl)pyrimidin-4-yl)amino)-2-cyclopropyl-3,3-difluoro-7-methyl-1,2,3,4-tetrahydro-[1,4]oxazepino[2,3-c]quinolin-6(7H)-one] | 1.78 |
| C#CC1CCCN(c2ncc(Cl)c(Nc3ccc4c(c3)c3c(c(=O)n4C)OCC(F)(F)[C@H](C4CC4)N3)n2)C1 (stereo partly drawn) [Example 12x22, (2S)-10-((5-chloro-2-(3-ethynylpiperidin-1-yl)pyrimidin-4-yl)amino)-2-cyclopropyl-3,3-difluoro-7-methyl-1,2,3,4-tetrahydro-[1,4]oxazepino[2,3-c]quinolin-6(7H)-one] | 22.9 |
| Cn1c(=O)c2c(c3cc(Nc4nc(N5CCCC(C#N)C5)ncc4Cl)ccc31)N[C@@H](C1CC1)C(F)(F)CO2 (stereo partly drawn) [Example 12x23, 1-(5-chloro-4-(((S)-2-cyclopropyl-3,3-difluoro-7-methyl-6-oxo-1,2,3,4,6,7-hexahydro-[1,4]oxazepino[2,3-c]quinolin-10-yl)amino)pyrimidin-2-yl)piperidine-3-carbonitrile] | 5.13 |
| Cn1c(=O)c2c(c3cc(Nc4nc(NC5CCC(F)(F)CC5)ncc4Cl)ccc31)N[C@@H](C1CC1)C(F)(F)CO2 [Example 12x24, (S)-10-((5-chloro-2-((4,4-difluorocyclohexyl)amino)pyrimidin-4-yl)amino)-2-cyclopropyl-3,3-difluoro-7-methyl-1,2,3,4-tetrahydro-[1,4]oxazepino[2,3-c]quinolin-6(7H)-one] | 14.5 |
| Cn1c(=O)c2c(c3cc(Nc4nc(N5CCCC6CC65)ncc4Cl)ccc31)N[C@@H](C1CC1)C(F)(F)CO2 (stereo partly drawn) [Example 12x25, (2S)-10-((2-(2-azabicyclo[4.1.0]heptan-2-yl)-5-chloropyrimidin-4-yl)amino)-2-cyclopropyl-3,3-difluoro-7-methyl-1,2,3,4-tetrahydro-[1,4]oxazepino[2,3-c]quinolin-6(7H)-one] | 15.8 |
| Cn1c(=O)c2c(c3cc(Nc4nc(N5CCNC(C(F)F)C5)ncc4Cl)ccc31)N[C@@H](C1CC1)C(F)(F)CO2 (stereo partly drawn) [Example 12x26, (2S)-10-((5-chloro-2-(3-(difluoromethyl)piperazin-1-yl)pyrimidin-4-yl)amino)-2-cyclopropyl-3,3-difluoro-7-methyl-1,2,3,4-tetrahydro-[1,4]oxazepino[2,3-c]quinolin-6(7H)-one] | 1.91 |
| C[C@H]1C[C@@H](OCCN(C)C)CN(c2ncc(Cl)c(Nc3ccc4c(c3)c3c(c(=O)n4C)OCC(F)(F)[C@H](C4CC4)N3)n2)C1 [Example 12x28, (S)-10-((5-chloro-2-((3R,5S)-3-(2-(dimethylamino)ethoxy)-5-methylpiperidin-1-yl)pyrimidin-4-yl)amino)-2-cyclopropyl-3,3-difluoro-7-methyl-1,2,3,4-tetrahydro-[1,4]oxazepino[2,3-c]quinolin-6(7H)-one] | 3.16 |
| CC1CC(C(=O)N2CCC2)CN(c2ncc(Cl)c(Nc3ccc4c(c3)c3c(c(=O)n4C)OCC(F)(F)[C@H](C4CC4)N3)n2)C1 (stereo partly drawn) [Example 12x30, (2S)-10-((2-(3-(azetidine-1-carbonyl)-5-methylpiperidin-1-yl)-5-chloropyrimidin-4-yl)amino)-2-cyclopropyl-3,3-difluoro-7-methyl-1,2,3,4-tetrahydro-[1,4]oxazepino[2,3-c]quinolin-6(7H)-one] | 2 |
| CC1CC(C(=O)N2CC(F)(F)C2)CN(c2ncc(Cl)c(Nc3ccc4c(c3)c3c(c(=O)n4C)OCC(F)(F)[C@H](C4CC4)N3)n2)C1 (stereo partly drawn) [Example 12x31, (2S)-10-((5-chloro-2-(3-(3,3-difluoroazetidine-1-carbonyl)-5-methylpiperidin-1-yl)pyrimidin-4-yl)amino)-2-cyclopropyl-3,3-difluoro-7-methyl-1,2,3,4-tetrahydro-[1,4]oxazepino[2,3-c]quinolin-6(7H)-one] | 3.8 |
| Cn1c(=O)c2c(c3cc(Nc4nc(N5CC(CO)C5)ncc4Cl)ccc31)N[C@@H](C1CC1)C(F)(F)CO2 [Example 12x32, (S)-10-((5-chloro-2-(3-(hydroxymethyl)azetidin-1-yl)pyrimidin-4-yl)amino)-2-cyclopropyl-3,3-difluoro-7-methyl-1,2,3,4-tetrahydro-[1,4]oxazepino[2,3-c]quinolin-6(7H)-one] | 3.72 |
| Cn1c(=O)c2c(c3cc(Nc4nc(N5CC[C@H]5CO)ncc4Cl)ccc31)N[C@@H](C1CC1)C(F)(F)CO2 [Example 12x33a, (S)-10-((5-chloro-2-((S)-2-(hydroxymethyl)azetidin-1-yl)pyrimidin-4-yl)amino)-2-cyclopropyl-3,3-difluoro-7-methyl-1,2,3,4-tetrahydro-[1,4]oxazepino[2,3-c]quinolin-6(7H)-one] | 2.14 |
| Cn1c(=O)c2c(c3cc(Nc4nc(N5CC[C@@H]5CO)ncc4Cl)ccc31)N[C@@H](C1CC1)C(F)(F)CO2 [Example 12x33b, (S)-10-((5-chloro-2-((R)-2-(hydroxymethyl)azetidin-1-yl)pyrimidin-4-yl)amino)-2-cyclopropyl-3,3-difluoro-7-methyl-1,2,3,4-tetrahydro-[1,4]oxazepino[2,3-c]quinolin-6(7H)-one] | 7.76 |
| Cn1c(=O)c2c(c3cc(Nc4nc(N5CC(CF)C5)ncc4Cl)ccc31)N[C@@H](C1CC1)C(F)(F)CO2 [Example 12x35, (S)-10-((5-chloro-2-(3-(fluoromethyl)azetidin-1-yl)pyrimidin-4-yl)amino)-2-cyclopropyl-3,3-difluoro-7-methyl-1,2,3,4-tetrahydro-[1,4]oxazepino[2,3-c]quinolin-6(7H)-one] | 5.37 |
| Cn1c(=O)c2c(c3cc(Nc4nc(N5CCC(C#N)CC5)ncc4Cl)ccc31)N[C@@H](C1CC1)C(F)(F)CO2 [Example 12x38, (S)-1-(5-chloro-4-((2-cyclopropyl-3,3-difluoro-7-methyl-6-oxo-1,2,3,4,6,7-hexahydro-[1,4]oxazepino[2,3-c]quinolin-10-yl)amino)pyrimidin-2-yl)piperidine-4-carbonitrile] | 3.72 |
| CN(C)C(=O)C1CC(F)CN(c2ncc(Cl)c(Nc3ccc4c(c3)c3c(c(=O)n4C)OCC(F)(F)[C@H](C4CC4)N3)n2)C1 (stereo partly drawn) [Example 12x39, 1-(5-chloro-4-(((S)-2-cyclopropyl-3,3-difluoro-7-methyl-6-oxo-1,2,3,4,6,7-hexahydro-[1,4]oxazepino[2,3-c]quinolin-10-yl)amino)pyrimidin-2-yl)-5-fluoro-N,N-dimethylpiperidine-3-carboxamide] | 2.51 |
| Cn1c(=O)c2c(c3cc(Nc4nc(N5CCCC(F)C5)ncc4Cl)ccc31)N[C@@H](C1CC1)C(F)(F)CO2 (stereo partly drawn) [Example 12x40, (2S)-10-((5-chloro-2-(3-fluoropiperidin-1-yl)pyrimidin-4-yl)amino)-2-cyclopropyl-3,3-difluoro-7-methyl-1,2,3,4-tetrahydro-[1,4]oxazepino[2,3-c]quinolin-6(7H)-one] | 10.7 |
| Cn1c(=O)c2c(c3cc(Nc4nc(N5CCC(F)CC5)ncc4Cl)ccc31)N[C@@H](C1CC1)C(F)(F)CO2 [Example 12x42, (S)-10-((5-chloro-2-(4-fluoropiperidin-1-yl)pyrimidin-4-yl)amino)-2-cyclopropyl-3,3-difluoro-7-methyl-1,2,3,4-tetrahydro-[1,4]oxazepino[2,3-c]quinolin-6(7H)-one] | 6.17 |
| Cn1c(=O)c2c(c3cc(Nc4nc(N5CCC[C@H]5CO)ncc4Cl)ccc31)N[C@@H](C1CC1)C(F)(F)CO2 [Example 12x44, (S)-10-((5-chloro-2-((S)-2-(hydroxymethyl)pyrrolidin-1-yl)pyrimidin-4-yl)amino)-2-cyclopropyl-3,3-difluoro-7-methyl-1,2,3,4-tetrahydro-[1,4]oxazepino[2,3-c]quinolin-6(7H)-one] | 5.01 |
| COC[C@@H]1CCCN1c1ncc(Cl)c(Nc2ccc3c(c2)c2c(c(=O)n3C)OCC(F)(F)[C@H](C3CC3)N2)n1 [Example 12x45a, (S)-10-((5-chloro-2-((S)-2-(methoxymethyl)pyrrolidin-1-yl)pyrimidin-4-yl)amino)-2-cyclopropyl-3,3-difluoro-7-methyl-1,2,3,4-tetrahydro-[1,4]oxazepino[2,3-c]quinolin-6(7H)-one] | 11.2 |
| COC[C@H]1CCCN1c1ncc(Cl)c(Nc2ccc3c(c2)c2c(c(=O)n3C)OCC(F)(F)[C@H](C3CC3)N2)n1 [Example 12x45b, (S)-10-((5-chloro-2-((R)-2-(methoxymethyl)pyrrolidin-1-yl)pyrimidin-4-yl)amino)-2-cyclopropyl-3,3-difluoro-7-methyl-1,2,3,4-tetrahydro-[1,4]oxazepino[2,3-c]quinolin-6(7H)-one] | 4.79 |
| Cn1c(=O)c2c(c3cc(Nc4nc(N5CC(F)(F)C[C@H]5CO)ncc4Cl)ccc31)N[C@@H](C1CC1)C(F)(F)CO2 [Example 12x47, (S)-10-((5-chloro-2-((S)-4,4-difluoro-2-(hydroxymethyl)pyrrolidin-1-yl)pyrimidin-4-yl)amino)-2-cyclopropyl-3,3-difluoro-7-methyl-1,2,3,4-tetrahydro-[1,4]oxazepino[2,3-c]quinolin-6(7H)-one] | 8.32 |
